Data taken from paper PMC8705706, “Benzimidazole Derivatives as New and Selective Inhibitors of Arginase from Leishmania mexicana with Biological Activity against Promastigotes and Amastigotes” (International Journal of Molecular Sciences, 2021).
Counter-ions that a name gives are not always drawn.

What was measured:
[1] = system: promastigotes; settings: cited from earlier work
[2] = target: recombinant arginase from Leishmania mexicana (LmARG) (Leishmania mexicana, UniProt Q6TUJ5); experiment: Inhibition of recombinant LmARG, colorimetric urea assay; format: biochemical; settings: for inhibition at 200 µM: read-out: % Inhibition LmARG [200 μM]; for Inhibition behavior of LmARG: I50 curves; for IC50: recombinant LmARG, read-out: I50 (concentration that inhibits 50% enzyme activity), LmARG
Method: (§1) The activity of the recombinant arginases was measured in a colorimetric assay with some modifications. Briefly, the enzyme (2 µg) was previously activated with 1 mM MnCl2, 100 mM Tris-HCl, pH 8 during 15 min at 37 °C. Thereafter, 50 mM L-arginine was added, and the reaction was stopped after 10 min using 30 µL of an acid mixture (H2SO4, H3PO4 and H2O [1:3:7]), and 20 µL of 245 mM of α-isonitrosopropiophenone (dissolved in ethanol). Samples were heated in a thermocycler at 95 °C for 1 h. The urea in the samples was measured at 550 nm in a Synergy H1 Hybrid Multi-Mode Microplate Reader (BioTek).
(§2) The fifty molecules with the highest docking score were selected for inhibition studies that were made under the conditions mentioned above, adding the respective compound (dissolved in DMSO) at a concentration of 200 µM, keeping a final 10% DMSO concentration. The concentration that inhibits 50% of the enzyme activity (I50) was determined through curves at different compound concentrations. The I50 was obtained fitting the curves to the equation reported by Téllez-Valencia, et al., 2002 [25].

[3] = system: amastigote of L. mexicana; experiment: Biological activity against intracellular amastigotes in J774.2 macrophages, resazurin; format: cell-based, Leishmania mexicana; settings: intracellular L. mexicana amastigotes in J774.2 macrophages, 48 h
Method: Biological activity of the benzimidazole derivatives was also evaluated against the amastigote of L. mexicana. For this, 5 × 10^4 murine macrophages J774.2 (ATCC® TIB-67) per well were grown in a plate of 96 wells with RPMI medium at […], 5% CO2 during 24 h. The cells were infected with promastigotes in log phase in a 10:1 proportion (parasite: macrophage) and they were incubated at 37 °C, 5% CO2 during 24–48 h. A wash with RPMI medium to remove the not-infected promastigotes was made. Compounds were added in a serial dilution from 100 µg to 0.8 µg/mL in triplicate and were incubated at 37 °C, 5% CO2 for 48 h. Glucantime, Amphotericin B and Miltefosine were used as reference drugs. Then, the cells were lysed with a non-complemented Schneider’s medium lysis solution with SDS 0.01%, after incubating for 20 min the lysis solution was removed. Afterwards, Schneider medium was added incubating at 26 °C during four days at room temperature to differentiate intracellular amastigotes from free amastigotes. Thereafter, 20 µL of resazurin 2.5 mM was added to each well and incubated during 3 h. Fluorescence intensity and IC50 were measured as described for promastigotes. The assays were made by triplicate in 3 independent experiments.

[4] = system: Promastigotes of L. mexicana (MNYC/BZ/62/M379); experiment: Biological activity against promastigotes, resazurin; format: cell-based, Leishmania mexicana; settings: 48 h
Method: Promastigotes of L. mexicana (MNYC/BZ/62/M379 reference strain) were grown in Schneider’s medium supplemented with fetal bovine serum 10% (v/v), ampicillin (100 U/mL)/streptomycin (100 µg/mL). Parasites were collected at log phase to assess the compounds and 5 × 10^5 promastigotes were seeded in a 96-wells plate. Compounds were previously dissolved in dimethyl sulfoxide (DMSO) up to a concentration of 1 mg/mL. Thereafter, serial dilutions were made with culture medium from 100 µg/mL to 0.8 µg/mL and then they were added to the wells by triplicates. Parasites non treated and treated with Glucantime, Amphotericin B and Miltefosine were included as […]. Parasites were incubated at 26 °C during 48 h and resazurin 2.5 mM was added at the end into each well. Afterwards, fluorescence intensity was measured with excitation/emission 535/590 nm in a spectrofluorometer (Infinite 200, Tecan Group Ltd., Mannedorf, Switzerland). Finally, half maximal inhibitory concentration (IC50) was determined through a Probit analysis. The assays were made by triplicate in 3 independent experiments.

[5] = system: Murine macrophages J774.2; design: method as in Matadamas-Martínez et al., 2019 [28]; settings: J774.2 murine macrophages; previous study under the same conditions; ref Matadamas-Martínez et al., 2019 [28]; cited from earlier work
[6] = system: L. amazonensis promastigotes; design: method as in PMID 33198198; settings: cited from earlier work
[7] = target: T1, human arginase 1 (HsARG) (Homo sapiens, UniProt P05089); experiment: Inhibition of recombinant human arginase 1, colorimetric urea assay; format: biochemical; settings: for Selectivity LmARG versus HsARG: comparison of inhibition of LmARG and HsARG; for Inhibition of recombinant HsARG: highest concentration possible to be tested, 1 mM
T1 construct: made in house; host or cells: E. coli BL21(DE3)pLysS
T1 sequence (P05089 1-322): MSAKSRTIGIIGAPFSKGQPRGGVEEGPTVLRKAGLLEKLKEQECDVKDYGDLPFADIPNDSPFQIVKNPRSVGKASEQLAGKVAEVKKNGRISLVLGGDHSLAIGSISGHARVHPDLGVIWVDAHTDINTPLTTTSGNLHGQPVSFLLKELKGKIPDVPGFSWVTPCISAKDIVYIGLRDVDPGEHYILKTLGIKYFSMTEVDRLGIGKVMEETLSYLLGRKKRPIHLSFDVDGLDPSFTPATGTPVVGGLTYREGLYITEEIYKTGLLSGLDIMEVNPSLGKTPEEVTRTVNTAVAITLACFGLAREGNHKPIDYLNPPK
Method: as §1, §2

[8] = Cytotoxicity assay, resazurin; format: cell-based; settings: mouse, J774.2 murine macrophages, maximum concentration evaluated
Method: Murine macrophages J774.2 (ATCC® TIB-67) (5 × 10^4 cells/well) were grown in plates of 96 wells for 24 h at 37 °C in 5% CO2. Thereafter, compounds were added in serial diluted concentrations (100 to 0.8 µg/mL) and they were incubated during 24 h. The cellular vitality was evaluated using resazurin, adding 20 µL to each well at 2.5 mM incubating 4 h. Finally, the cytotoxic concentration (CC50) was determined through a Probit analysis. The assays were made by triplicate in 3 independent experiments. CC50 values of Amphotericin B, Miltefosine and Glucantime were taken from a previous study performed under the same conditions by our research group.

NC(=NCCC[C@H](N)C(=O)O)NO [NOHA]
EC50 in promastigotes [1]: millimolar order

CSc1nc2cc(N3CCNCC3)c(Cl)cc2[nH]1 [Compound 6, 6-Chloro-2-(methylthio)-5-(piperazin-1-yl)-1H-benzimidazole]
inhibition at 200 µM [2]: 46%

C[C@@H]1[C@H](O)[C@@H](C)/C=C/C=C/C=C/C=C/C=C/C=C/C=C/[C@H](O[C@@H]2O[C@H](C)[C@@H](O)[C@H](N)[C@@H]2O)C[C@@H]2O[C@](O)(C[C@@H](O)C[C@@H](O)[C@H](O)CC[C@@H](O)C[C@@H](O)CC(=O)O[C@H]1C)C[C@H](O)[C@H]2C(=O)O [Amphotericin B]
IC50 ([3]; Leishmania mexicana): 1.3 µM | IC50 ([4]; Leishmania mexicana): 0.89 µM | CC50 [5]: 7.4 µM

COC(=O)c1cc2nc(S)[nH]c2cc1Cl [Compound 15]
inhibition at 200 µM [2]: 25%

CC(=O)c1nc2cc(Cl)ccc2n1C [Compound 4]
inhibition at 200 µM [2]: 56%

COC(=O)c1cc2c(cc1Cl)nc(S)n2C [Compound 16]
inhibition at 200 µM [2]: 25%

O=C(/C=C/c1ccc(O)c(O)c1)Nc1ccccc1 [CAPA, caffeic acid phenylamide]
IC50 [6]: 82.6 µM

CC(=O)c1nc2ccc(Cl)cc2n1C [Compound 10]
inhibition at 200 µM [2]: 33%

CNC(=O)c1nc2ccc(Cl)cc2n1C [Compound 5]
inhibition at 200 µM [2]: 56%

CSc1nc2cc(N3CCNCC3)c(Cl)cc2[nH]1 (as salt: HCl) [Compound 6, 6-Chloro-2-(methylthio)-5-(piperazin-1-yl)-1H-benzimidazole]
melting point: 235 to 237 °C

COC(=O)Nc1nc2ccc(Cl)cc2n1C [Compound 8, Methyl (6-chloro-1-methyl-1H-benzimidazol-2-yl)carbamate]
inhibition at 200 µM [2]: 40%

CNc1cc(Cl)ccc1N [Compound 12]
inhibition at 200 µM [2]: 30%

COC(=O)Nc1nc2cc(Cl)ccc2n1C [Compound 1, Methyl (5-chloro-1-methyl-1H-benzimidazol-2-yl)carbamate]
IC50 ([3]; Leishmania mexicana): 32 µM | Selectivity LmARG versus HsARG [7]: selective to the enzyme from parasite | Inhibition of recombinant HsARG [7]: none of the compounds inhibit completely the enzyme | Inhibition behavior of LmARG [2]: cooperative behavior | inhibition at 200 µM [2]: 100% | IC50 [2]: 52 µM | CC50 at 24 h [8]: > 417 µM | IC50 ([4]; Leishmania mexicana): 64 µM

CNc1ccc(Cl)cc1N [Compound 11]
inhibition at 200 µM [2]: 33%

CCCSc1ccc(NC)c(N)c1 [Compound 13]
inhibition at 200 µM [2]: 27%

COC(=O)Nc1nc2ccc(Cl)cc2n1C (hydrate or solvate) [Compound 8, Methyl (6-chloro-1-methyl-1H-benzimidazol-2-yl)carbamate]
melting point: 191.3 to 192.4 °C

COC(=O)c1cc2c(cc1Cl)nc(SCCNC(=N)N)n2C [Compound 7, Methyl 5-chloro-2-((2-guanidinoethyl)thio)-1-methyl-1H-benzimidazole-6-carboxylate]
inhibition at 200 µM [2]: 40% | melting point: 172.9 to 173.4 °C

CCCSc1ccc2c(c1)nc(NC(=O)OC)n2C [Compound 9, Methyl (1-methyl-5-(propylthio)-1H-benzimidazol-2-yl)carbamate]
inhibition at 200 µM [2]: 36% | melting point: 120.5 to 122.1 °C

CCCCCCCCCCCCCCCCOP(=O)([O-])OCC[N+](C)(C)C [Miltefosine]
IC50 ([3]; Leishmania mexicana): 8.6 µM | IC50 ([4]; Leishmania mexicana): 8.1 µM | CC50 [5]: 141 µM

CSc1nc2cc(C(N)=O)c(Cl)cc2[nH]1 [Compound 2, 6-Chloro-2-(methylthio)-1H-benzimidazole-5-carboxamide]
IC50 ([3]; Leishmania mexicana): 101 µM | Selectivity LmARG versus HsARG [7]: selective to the enzyme from parasite | Inhibition of recombinant HsARG [7]: none of the compounds inhibit completely the enzyme | Inhibition behavior of LmARG [2]: cooperative behavior | inhibition at 200 µM [2]: 100% | IC50 [2]: 82 µM | CC50 at 24 h ([8]; J774.2 macrophages): > 414 µM | IC50 ([4]; Leishmania mexicana): 132 µM

N=C(NO)NCC[C@H](N)C(=O)O [nor-NOHA]
EC50 in promastigotes [1]: millimolar order

meglumine antimoniate [Glucantime]
IC50 [3]: 35 µM | IC50 [4]: 101 µM | CC50 [5]: > 273 µM

COC(=O)c1cc2c(cc1Cl)nc(SCC=NNC(N)=O)n2C [Compound 3, Methyl 2-((2-(2-carbamoylhydrazineylidene)ethyl)thio)-5-chloro-1-methyl-1H-benzimidazole-6-carboxylate]
inhibition at 200 µM [2]: 60% | melting point: 196.7 to 197.1 °C
